In patent US5023236A, “Factor VII/VIIA active site inhibitors” (Corvas, Inc., priority 1989, dated 1991):
Non-standard residues stand in square brackets, D forms with d. Residues, ends and D or L forms follow the SMILES beside them. *: point of attachment. Dansyl = CN(C)c1cccc2c(S(=O)(=O)*)cccc12; Tos = Cc1ccc(S(=O)(=O)*)cc1; CH2Cl = ClC*

Key:
[1] = target: T1, factor VII/VIIa in the binary complex with tissue factor (Homo sapiens, UniProt P08709); assay: linked enzyme chromogenic assay of factor X activation (S2222) with factor VII and TF positive J82 cells; assay type: biochemical; details: for Relative potency Ki 5 (MU): P3 side chain of peptide P3-Thr-Arg, one unit = inverse of the molar concentration at 5% inhibition of factor X activation; for Peptide (Ki 5): free peptide; for Peptide (Ki 5) / Peptidyl-CMK (Ki 5): inverse of molar concentration at 5% inhibition of factor X activation; for inhibitory activity (in words): peptides with R3 side chain on threonyl-arginine; for Ki 5: peptidyl chloromethyl ketones, Table 3; for Peptidyl-CMK (Ki 5): chloromethyl ketone analogue; for IC50: concentration required for 50% inhibition of the rate of factor X activation, column beside Peptidyl-CMK, read-out: Ki 50 (the source's name)
T1 construct: purified human factor VII (1 nM), purified as described by Fair, D; from tissue; TF endogenous on J82 cells (ATCC HTB1)
T1 sequence (P08709 213-466 limits assumed): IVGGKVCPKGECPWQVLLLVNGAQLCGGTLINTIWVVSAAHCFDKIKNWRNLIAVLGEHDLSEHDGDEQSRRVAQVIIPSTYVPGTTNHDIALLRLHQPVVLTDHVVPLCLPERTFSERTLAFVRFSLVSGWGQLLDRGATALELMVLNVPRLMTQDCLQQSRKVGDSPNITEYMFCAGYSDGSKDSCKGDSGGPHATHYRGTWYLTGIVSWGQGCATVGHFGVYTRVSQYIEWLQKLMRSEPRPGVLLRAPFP
T1 sequence (P08709 61-212 partner limits assumed): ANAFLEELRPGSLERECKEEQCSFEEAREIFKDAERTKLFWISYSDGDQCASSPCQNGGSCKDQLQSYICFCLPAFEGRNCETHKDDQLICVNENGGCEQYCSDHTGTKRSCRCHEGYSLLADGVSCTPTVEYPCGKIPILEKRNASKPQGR
T1 sequence (P13726 33-295 partner): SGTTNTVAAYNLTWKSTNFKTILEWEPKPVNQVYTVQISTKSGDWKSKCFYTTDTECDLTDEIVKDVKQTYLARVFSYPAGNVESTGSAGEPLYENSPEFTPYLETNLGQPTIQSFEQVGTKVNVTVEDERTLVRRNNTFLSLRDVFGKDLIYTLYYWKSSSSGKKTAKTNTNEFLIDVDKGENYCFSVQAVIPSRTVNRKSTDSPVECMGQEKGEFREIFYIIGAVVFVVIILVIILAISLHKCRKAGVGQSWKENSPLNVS
Experimental: Relative potency is expressed as megaunits (MU), where one unit is equal
to the inverse of the molar concentration at 5% inhibition of factor X
activation. Quantitation of inhibition of factor VII/VIIa in the binary
complex with tissue factor was performed in a linked enzyme chromogenic
assay using factor X, purified as described by Schwartz, B. S. et al.
(1981) J. Clin. Invest. 67:1650, and the chromogenic substrate S2222
(Helena Labs, Beaumont, Texa s). Briefly, the peptides were preincubated
with purified human factor VII (1 nM), purified as described by Fair, D.
incubation at room temperature 25 μl of 20 mM CaCl2, 1 ×
10^5 TF positive human bladder carcinoma derived J82 cells (available
from American Type Culture Collection, Rockville, Maryland, under
Accession No. ATCC HTB1), 25 μl of purified human factor human factor
(100 .eta.M) in 50 μl of TRIS buffered saline and 50 μl of 2 mM
S2222 was added. The use of J82 cells is an important feature of these in
vitro assays because they produce significant levels of TF for the
formation of active TF:VII/VIIa. The rate of conversion of factor X to Xa
was monitored kinetically by determination of the chromogenic product of
Inhibition by the compounds of this invention of the proteolytic activity of [TF:VII/VIIa] on factor X was analyzed by a chromogenic assay in which the substrate S-2222 is cleaved by the generated factor Xa. […] Analyses included the absence of effect of all such compounds on factor Xa, an enzyme closely homologous to factor VII and VIIa. […]

[2] = target: T2, [TF:VII/VIIa] complex (Homo sapiens, UniProt P08709); assay: clotting inhibition of normal human plasma with J82 cells; assay type: biochemical
T2 construct: from tissue; host or cells: normal human plasma (factor VII); J82 cells (endogenous TF)
T2 sequence (P08709 213-466 limits assumed): as the sequence (P08709 213-466 limits assumed) above
T2 sequence (P08709 61-212 partner limits assumed): as the sequence (P08709 61-212 partner limits assumed) above
T2 sequence (P13726 33-295 partner): as the sequence (P13726 33-295 partner) above
Experimental: Normal human plasma was diluted 1:3 by volume with 0.02 M Na Citrate, 0.14M NaCl pH 7.4 in a glass tube. Diluted plasma (100μl) was then mixed with 100μl of J82 cells at 1×10^6 cells/ml and 100 μl of inhibitor. Plasma clotting times were obtained by visual observation of initial turbidity following addition of 100 μl of 20 mM calcium chloride. Human plasma clotting times were also expressed as calculated milli-units of TF activity (assuming no inhibitor present).

| inhibitory activity (in words) [1] | Ki 5 [1] | SMILES | also measured |
| --- | --- | --- | --- |
| – | 44 MU | C[C@@H](O)[C@H](NC(=O)[C@@H](N)CC(N)=O)C(=O)N[C@@H](CCCNC(=N)N)C(=O)CCl [Example 8, H-L-Asn-L-Thr-L-Arg-CMK] (H-Asn-Thr-Arg-CH2Cl) | – |
| – | 60 MU | C[C@@H](O)[C@H](NC(=O)[C@@H](N)CC(=O)O)C(=O)N[C@@H](CCCNC(=N)N)C(=O)CCl [Example 9, H-L-Asp-L-Thr-L-Arg-CMK] (H-Asp-Thr-Arg-CH2Cl) | – |
| – | 68 MU | CC(C)C[C@H](N)C(=O)N[C@H](C(=O)N[C@@H](CCCNC(=N)N)C(=O)CCl)[C@@H](C)O [Example 11, H-L-Leu-L-Thr-L-Arg-CMK] (H-Leu-Thr-Arg-CH2Cl) | Peptidyl-CMK (Ki 5) [1]: 67.5 MU; IC50 [1]: 95 µM; inhibition at 3 µM ([2]; LTR-CMK final conc 3 μM): 5.3%; inhibition at 30 µM ([2]; LTR-CMK final conc 30 μM): 41%; inhibition at 300 µM ([2]; LTR-CMK final conc 300 μM): 75% |
| – | 100 MU | CC(C)C[C@@H](N)C(=O)N[C@H](C(=O)N[C@@H](CCCNC(=N)N)C(=O)CCl)[C@@H](C)O [Example 15, H-D-Leu-L-Thr-L-Arg-CMK] (H-[dL]-Thr-Arg-CH2Cl) | – |
| – | 42 MU | C[C@@H](O)[C@H](NC(=O)[C@H](N)Cc1ccccc1)C(=O)N[C@@H](CCCNC(=N)N)C(=O)CCl [Example 16, H-D-Phe-L-Thr-L-Arg-CMK] (H-[dF]-Thr-Arg-CH2Cl) | – |
| – | 60 MU | CC(=O)N[C@@H](CC(C)C)C(=O)N[C@H](C(=O)N[C@@H](CCCNC(=N)N)C(=O)CCl)[C@@H](C)O [Example 17, Ac-L-Leu-L-Thr-L-Arg-CMK] (Ac-Leu-Thr-Arg-CH2Cl) | – |
| – | 60 MU | Cc1ccc(S(=O)(=O)N[C@@H](CC(C)C)C(=O)N[C@H](C(=O)N[C@@H](CCCNC(=N)N)C(=O)CCl)[C@@H](C)O)cc1 [Example 18, Tosyl-L-Leu-L-Thr-L-Arg-CMK] (Tos-Leu-Thr-Arg-CH2Cl) | – |
| – | 60 MU | CC(C)C[C@H](N)C(=O)N[C@@H](CO)C(=O)N[C@@H](CCCNC(=N)N)C(=O)CCl [Example 20, H-L-Leu-L-Ser-L-Arg-CMK] (H-Leu-Ser-Arg-CH2Cl) | – |
| – | 60 MU | CC(C)C[C@H](N)C(=O)N1CCC[C@H]1C(=O)N[C@@H](CCCNC(=N)N)C(=O)CCl [Example 21, H-L-Leu-L-Pro-L-Arg-CMK] (H-Leu-Pro-Arg-CH2Cl) | – |
| – | 60 MU | N=C(N)NCCC[C@H](NC(=O)[C@H](CO)NC(=O)[C@@H](N)CC(N)=O)C(=O)CCl [Example 22, H-L-Asn-L-Ser-L-Arg-CMK] (H-Asn-Ser-Arg-CH2Cl) | – |
| inactive | – | C[C@@H](O)[C@H](NC(=O)[C@@H](N)Cc1ccccc1)C(=O)N[C@@H](CCCNC(=N)N)C(=O)O [phenylalanyl] (H-Phe-Thr-Arg-OH) | – |
| inactive | – | C[C@@H](O)[C@H](NC(=O)[C@@H]1CCCN1)C(=O)N[C@@H](CCCNC(=N)N)C(=O)O [prolyl] (H-Pro-Thr-Arg-OH) | – |
| inactive | – | C[C@@H](O)[C@H](NC(=O)[C@@H](N)CO)C(=O)N[C@@H](CCCNC(=N)N)C(=O)O [seryl] (H-Ser-Thr-Arg-OH) | – |
| inactive | – | C[C@@H](O)[C@H](NC(=O)[C@@H](N)Cc1c[nH]c2ccccc12)C(=O)N[C@@H](CCCNC(=N)N)C(=O)O [tryptophanyl] (H-Trp-Thr-Arg-OH) | – |

The remaining lines, values behind:

| SMILES | inhibitory activity (in words) [1] | Ki 5 [1] | also measured |
| --- | --- | --- | --- |
| C[C@@H](O)[C@H](NC(=O)[C@@H](N)CC(N)=O)C(=O)N[C@@H](CCCNC(=N)N)C(=O)O [Example 1, H-L-Asn-L-Thr-L-Arg] (H-Asn-Thr-Arg-OH) | – | – | Relative potency Ki 5 (MU) [1]: 6.7 MU |
| C[C@@H](O)[C@H](NC(=O)[C@@H](N)CC(=O)O)C(=O)N[C@@H](CCCNC(=N)N)C(=O)O [Example 2, H-L-Asp-L-Thr-L-Arg] (H-Asp-Thr-Arg-OH) | – | – | Relative potency Ki 5 (MU) [1]: 4.8 MU |
| C[C@@H](O)[C@H](NC(=O)[C@@H](N)Cc1c[nH]cn1)C(=O)N[C@@H](CCCNC(=N)N)C(=O)O [Example 3, H-L-His-L-Thr-L-Arg] (H-His-Thr-Arg-OH) | – | – | Relative potency Ki 5 (MU) [1]: 6.2 MU; Peptide (Ki 5) [1]: 6.2 MU |
| CC(C)C[C@H](N)C(=O)N[C@H](C(=O)N[C@@H](CCCNC(=N)N)C(=O)O)[C@@H](C)O [Example 4, H-L-Leu-L-Thr-L-Arg] (H-Leu-Thr-Arg-OH) | – | – | Relative potency Ki 5 (MU) [1]: 4.5 MU; Peptide (Ki 5) [1]: 4.5 MU |
| C[C@@H](O)[C@H](N)C(=O)N[C@H](C(=O)N[C@@H](CCCNC(=N)N)C(=O)O)[C@@H](C)O [Example 5, H-L-Thr-L-Thr-L-Arg] (H-Thr-Thr-Arg-OH) | – | – | Relative potency Ki 5 (MU) [1]: 2.6 MU |
| C[C@@H](O)[C@H](NC(=O)[C@@H](N)CCC(N)=O)C(=O)N[C@@H](CCCNC(=N)N)C(=O)O [Example 6, H-L-Gln-L-Thr-L-Arg] (H-Gln-Thr-Arg-OH) | – | – | Relative potency Ki 5 (MU) [1]: 2.5 MU |
| C[C@@H](O)[C@H](N)C(=O)N[C@@H](CCCNC(=N)N)C(=O)O [Example 7, H-L-Thr-L-Arg] (H-Thr-Arg-OH) | slight activity | – | Relative potency Ki 5 (MU) [1]: 2.0 MU |
| C[C@@H](O)[C@H](NC(=O)[C@@H](N)Cc1c[nH]cn1)C(=O)N[C@@H](CCCNC(=N)N)C(=O)CCl [Example 10, H-L-His-L-Thr-L-Arg-CMK] (H-His-Thr-Arg-CH2Cl) | – | 54 MU | Peptidyl-CMK (Ki 5) [1]: 54.0 MU; IC50 [1]: 120 µM |
| CC(C)C[C@H](NS(=O)(=O)c1cccc2c(N(C)C)cccc12)C(=O)N[C@H](C(=O)N[C@@H](CCCNC(=N)N)C(=O)CCl)[C@@H](C)O [Example 19, Dansyl-L-Leu-L-Thr-L-Arg-CMK] (Dansyl-Leu-Thr-Arg-CH2Cl) | – | 35 MU | – |
| C[C@@H](O)[C@H](NC(=O)[C@@H](N)CCC(=O)O)C(=O)N[C@@H](CCCNC(=N)N)C(=O)O [glutamyl] (H-Glu-Thr-Arg-OH) | inactive | – | – |
| C[C@@H](O)[C@H](NC(=O)CN)C(=O)N[C@@H](CCCNC(=N)N)C(=O)O [glycyl] (H-Gly-Thr-Arg-OH) | inactive | – | – |
| CC[C@H](C)[C@H](N)C(=O)N[C@H](C(=O)N[C@@H](CCCNC(=N)N)C(=O)O)[C@@H](C)O [isoleucyl] (H-Ile-Thr-Arg-OH) | inactive | – | – |
| CSCC[C@H](N)C(=O)N[C@H](C(=O)N[C@@H](CCCNC(=N)N)C(=O)O)[C@@H](C)O [methionyl] (H-Met-Thr-Arg-OH) | inactive | – | – |
| C[C@@H](O)[C@H](NC(=O)[C@@H](N)Cc1ccc(O)cc1)C(=O)N[C@@H](CCCNC(=N)N)C(=O)O [tyrosyl] (H-Tyr-Thr-Arg-OH) | inactive | – | – |
| CC(C)[C@H](N)C(=O)N[C@H](C(=O)N[C@@H](CCCNC(=N)N)C(=O)O)[C@@H](C)O [valyl] (H-Val-Thr-Arg-OH) | inactive | – | – |
